Data published in ChEMBL document CHEMBL1921759, “Antiprotozoal activity of proton-pump inhibitors” (Bioorg Med Chem Lett, 2011).

Tests used:
Type in all cases: functional, organism-based
Trichomonas vaginalis [1] = assay: Antiprotozoan activity against Trichomonas vaginalis
Giardia intestinalis [2] = assay: Antiprotozoan activity against Giardia intestinalis; conditions: Giardia duodenalis
Trichomonas vaginalis [3] = assay: Antiprotozoan activity against Trichomonas vaginalis GT3 trophozoites compound treated for 48 hrs measured after 48 hrs washout period; conditions: GT3, 48 h
Giardia intestinalis [4] = assay: Antiprotozoan activity against Giardia intestinalis IMSS:0989:1 trophozoites compound treated for 48 hrs measured after 48 hrs washout period; conditions: Giardia duodenalis, IMSS:0989:1, 48 h
Entamoeba histolytica = assay: Antiprotozoan activity against Entamoeba histolytica HM1-IMSS trophozoites compound treated for 48 hrs measured after 48 hrs washout period

| IC50 (Trichomonas vaginalis [1]) [nM] | IC50 (Giardia intestinalis [2]) [nM] | Compound | IC50 (Trichomonas vaginalis [3]) [nM] | IC50 (Giardia intestinalis [4]) [nM] | IC50 (Entamoeba histolytica) [nM] |
| --- | --- | --- | --- | --- | --- |
| 72 | 20 | CN(C)CCSc1nc2c(Cl)cc(Cl)cc2[nH]1 | – | – | – |
| – | – | Cc1c(OCC(F)(F)F)ccnc1C[S+]([O-])c1nc2ccccc2[nH]1 (centres undefined) [LANSOPRAZOLE] | 122 | 73.1 | 347 |
| – | – | COc1ccc2[nH]c([S+]([O-])Cc3ncc(C)c(OC)c3C)nc2c1 (centres undefined) [OMEPRAZOLE] | 122 | 95.5 | 492 |
| – | – | COc1ccnc(C[S+]([O-])c2nc3cc(OC(F)F)ccc3[nH]2)c1OC (centres undefined) [PANTOPRAZOLE] | 75.6 | 15.7 | 2.6 |
| – | – | COCCCOc1ccnc(C[S+]([O-])c2nc3ccccc3[nH]2)c1C (centres undefined) [RABEPRAZOLE] | 106 | 18.1 | 23.7 |
